Experimental data as given in US20060024708A1, “Porcine sulfotransferase 2A1 polynucleotide sequence, protein, and methods of use for same” (UNIVERSITY OF GUELPH, priority 2004, published 2006).

Assays:
[1] = test system: sulfotransferase activity towards 5α-androstenone in Leydig cells; assay: Inhibition studies: production of sulfoconjugated 16-androstene steroids from radiolabelled pregnenolone by purified Leydig cells; format: cell-based, boar; conditions: for production of sulfoconjugated 16-androstene steroids from pregnenolone: 8 hours, 0, 5, 10, 50 or 100 μM inhibitor
Protocol: Purified Leydig cells were resuspended (50×10^6 cells/incubation) into a final volume of 25 ml of Williams Media E mixture. Radiolabelled [7-^3H(N)]-pregnenolone (3.4μCi/μmol) was added as a substrate to give a final concentration of 0.4 μmol/incubation. Leydig cells were incubated for a total of 8 hours at 37° C. under 95%:5% CO2 atmosphere at in a Dubnoff shaking waterbath in the presence of 0, 5, 10, 50, or 100 μM of various sulfotransferase inhibitors. 8 hour incubations were used, as this is an optimal time-point for steroid conjugation under these conditions. […] Estrone was used as an EST-inhibitor. The sulfotransferase activity towards 5α-androstenone was determined by HPLC analysis of extracted 5 ml media aliquots.
Prior to analysis, conjugated steroids were separated from unconjugated steroids with the use of Sep-Pak C18 solid-phase chromatography cartridges as described previously (Raeside et al., 1997). After separation, the conjugate fraction was hydrolyzed overnight in trifluroacetic acid/ethyl acetate (1/100 v/v) at 45° C. in order to liberate the sulfoconjugated steroids (Raeside et al., 1999b). The solvolyzed steroids were then re-extracted by solid-phase chromatography. Enzyme hydrolysis was performed on the remaining conjugated material present after solvolysis with 1250 units of β-glucuronidase (type B-1, from bovine liver), and incubated overnight at 37° C.
The unconjugated and hydrolyzed steroids from the inhibition studies were analyzed by HPLC using the same protocol as stated above; however; radiolabelled steroids were measured on-line with a Canberra-Packard 500TR flow scintillation analyzer.

[2] = test system: Leydig cells; assay: Viability of isolated Leydig cells (trypan blue exclusion test); format: cell-based, boar; conditions: 100 μM, 8 h of exposure
Protocol: After the slaughter of group A boars, bulbourethral glands were removed and measured for length. A backfat sample was removed from the midline on the point of the 11th rib and frozen at −20° C. until assayed for 5α-androstenone. Testes samples were obtained from five randomly selected animals immediately after slaughter. Testes were transported to the laboratory within five minutes of their removal from the boar. One testis was dissected free from the epididymis, cut longitudinally, and decapsulated. The tissue was sliced and 100 g of tissue was incubated for 12 min in a shaking water bath at 37° C. with 1 mg/mL collagenase (type 1A), 50 μg/mL trypsin inhibitor, and 50 μg/mL DNase in 250 mL of Williams Media E containing 1 g/L bovine serum albumin and 0.1 g/L L-glutamine. Purified Leydig cells were obtained by layering the collagenase dispersed cells onto discontinuous Percoll gradients (Raeside and Renaud, 1983). Cell viability was determined with a trypan blue exclusion test. The typical viability of the isolated Leydig cells was 90%.
Purified Leydig cells were resuspended (50×10^6 cells/incubation) into a final volume of 25 ml of Williams Media E mixture. […] The sulfotransferase activity towards 5α-androstenone was determined by HPLC analysis of extracted 5 ml media aliquots.

[3] = test system: rat SULT2A1 gene; conditions: Makishima et al., 1999; cited from earlier work
[4] = test system: HST; conditions: Okuda et al., 1989; Singer et al., 1984; cited from earlier work

SMILES	production of the unconjugated forms of the 16-androstene steroids ([1]; Leydig cells treated with inhibitor, 8 hours)	production of sulfoconjugated 16-androstene steroids from pregnenolone ([1]; Leydig cells)	production of sulfoconjugated 16-androstene steroids at the 100 μM level ([1]; Leydig cells, 8 hours, 100 μM inhibitor)	viability of the Leydig cells [2]	induction of the rat SULT2A1 gene [3]	inhibition of HST [4]
CCN(CC)CC [Triethylamine]	increased production	decreased production	near zero levels	85%	–	–
C[C@H](CCC(=O)O)[C@H]1CC[C@H]2[C@@H]3[C@H](O)C[C@@H]4C[C@H](O)CC[C@]4(C)[C@H]3CC[C@]12C [Chenodeoxycholic acid]	–	–	–	–	strong inducer	–
Oc1c(Cl)c(Cl)c(Cl)c(Cl)c1Cl [PCP, Pentachlorophenol]	–	no effect	–	less than 50%	–	does not inhibit
